Test results taken from patent publication EP0230922A2, “Use of peptides in the preparation of agents for the treatment of coronary diseases or organic brain syndrome” (BOEHRINGER INGELHEIM KG, priority 1986, dated 1987).
“And” between values parts separate entries of the source, which are not always exact repeats. Equal entries are not always repeated.

Columns and labels:
[1] = tested on: Mäuse (ChbI: NMRI); assay: Hypoxia tolerance: survival of mice in a closed chamber (96,5 % N2, 3,5 % O2); format: in vivo; conditions: given 24 h, 16 h and 30 min before test, 10 mice per group
Text: 1. HYPOXIE-TOLERANZ, d.h. bei der Prüfung der überlebensfähigkeit von Tieren in einer geschlossenen Kammer.
Eine aus Plexiglas hergestellte, durchsichtige, mit einem Deckel verschließbare Kammer (28 cm x 40 cm x 20 cm; Gesamtvolumen 22,4 1) ist in 2 Hälften geteilt, in die je 10 männliche oder weibliche Mäuse (ChbI: NMRI; 20-25 g Körpergewicht) gesetzt werden. Die Kammer wird mit einem Gasgemisch, bestehend aus 96,5 % N2 und 3,5 % 02 durchströmt; das Strömungsvolumen beträgt 12 1/min.
Eine der beiden Gruppen erhält Prüfsubstanzen, die andere das Vehikel (0,5 % Tylose), die 24 h, 16 h und 30 min vor dem Test oral appliziert werden. Etwa 6-7 min nach Beginn der Durchströmung der Kammer sterben die ersten Tiere. Das Experiment wird beendet, wenn in der Kontrollgruppe nur noch 2-3 Tiere Zeichen von Leben zeigen.
Ohne die Tiere zu berühren, wird 15 min gewartet und dann die Zahl der überlebenden Tiere in den beiden Hälften der Kammern endgültig festgestellt. Die statistische Signifikanz der Differenz der überlebenden Tiere in beiden Gruppen kann mit dem "Exakten Test von Fisher für 2 x 2 Feldertafeln" festgestellt werden.

[2] = tested on: Mäuse (ChbI:NMRI); assay: Scopolamine test: passive avoidance in mice; format: in vivo; conditions: per os, scopolamine hydrobromide 0,6 mg/kg s.c., test 1 h after dosing
Text: Durch den cholinerg-muskarinen Antagonisten Scopolamin wird bei Mensch und Tier eine vorübergehende Störung des übergangs von Inhalten des Kurzzeitgedächtnisses in das Langzeitgedächtnis hervorgerufen. Die auch klinisch bei gesunden Probanden durch Scopolamin auslösbaren, mnestischen Störungen sind in ihrer Ausprägung den psychopathologischen Veränderungen bei Patienten mit organischem Hirnsyndrom ähnlich (Drachman & Leavitt, 1974).
Der Scopolamin-Test wird an Gruppen von jeweils 10 männlichen, nicht nüchternen, naiven Mäusen (ChbI:NMRI: Körpergewicht 35 g) mit Hilfe einer passiven Vermeidereaktion durchgeführt. Das Testgerät besteht aus einer Skinner Box (30 cm x 26 cm x 29 cm) mit einem elektrifizierbaren Gitterboden und einer Plastikplattform (5 cm x 5 cm) an einer Seitenwand. Die Tiere werden einzeln in die Skinner Box gesetzt. Nach einer Orientierungsperiode von 30 sec werden kurze, unterbrochene Stromstöße von ca. 0,8 mA so oft an den Gitterboden der Box gelegt, bis das Tier gelernt hat, daß das Aufsuchen und Verweilen auf der Plastikplattform vor dem Stromstoß Sicherheit gewährt. Tiere, welche dies innerhalb von 120 sec nicht lernen, werden nicht weiter verwendet. Die anderen Mäuse werden unmittelbar nach Erlernen der passiven Vermeidereaktion in drei Gruppen (10 Tiere pro Gruppe) eingeteilt. Eine Gruppe erhält Scopolaminhydrobromid (0,6 mg/kg s.c.) und oral Vehikel (0,5 % Tylose); die zweite Gruppe Scopolaminhydrobromid sowie die zu testende Substanz per os in 0,5 % Tylose und die dritte Gruppe lediglich 0,5 % Tylose p.o.. Eine Stunde nach Applikation wird jedes Tier einzeln auf die Plattform gesetzt, um das Erinnerungsvermögen an die erlernte Vermeidereaktion zu prüfen. Das Kriterium besteht in der Bestimmung, ob die Maus während mindestens 60 sec auf der Plattform verbleibt (Ja-Antwort) oder nicht (Nein-Antwort).
Etwa 75 % der Tiere, welche ausschließlich mit 0,5 % Tylose behandelt wurden, verbleiben bei der abschließenden Prüfung länger als 60 sec auf der Plattform: ein Ergebnis, welches als Ausdruck des guten Erinnerungsvermögens an die erlernte Erfahrung gedeutet werden kann. Nach Gabe von Scopolamin und Tylose verbleiben durchschnittlich etwa 25 % der Tiere auf der Plattform; dies zeigt die erhebliche Beeinträchtigung des Erinnerungsvermögens nach Gabe von Scopolamin.

SMILES | Behandelte Tiere Überlebende % ([1]; 10 mg/kg p.o.) | Behandelte Tiere Überlebende % ([1]; 30 mg/kg p.o.) | Behandelte Tiere Überlebende % ([1]; 50 mg/kg p.o.) | %der Tiere bei welcher die Scopol-amin-Wirkung anta-gonisiert wurde ([2]; Dosis 0,5 (unit not given)) | %der Tiere bei welcher die Scopol-amin-Wirkung anta-gonisiert wurde ([2]; Dosis 1 (unit not given)) | %der Tiere bei welcher die Scopol-amin-Wirkung anta-gonisiert wurde ([2]; Dosis 5 (unit not given)) | %der Tiere bei welcher die Scopol-amin-Wirkung anta-gonisiert wurde ([2]; Dosis 10 (unit not given)) | %der Tiere bei welcher die Scopol-amin-Wirkung anta-gonisiert wurde ([2]; Dosis 20 (unit not given)) | %der Tiere bei welcher die Scopol-amin-Wirkung anta-gonisiert wurde ([2]; Dosis 30 (unit not given))
C[C@H](NC(=O)[C@@H](S)Cc1ccccc1)C(=O)N1CCC[C@H]1C(=O)OCOC(=O)C(C)(C)C [Verbindung 4, N-[N-(3-Phenyl-2-S-mercaptopropanoyl)-S-alanyl]-S-prolin-pivaloyloxymethylester] | 90% | 30% | 70% and 100% |  |  |  |  |  | 
CC(=O)S[C@@H](Cc1ccccc1)C(=O)N[C@@H](C)C(=O)N1CCC[C@H]1C(=O)OCOC(=O)C(C)(C)C [Verbindung 3, N-[N-(3-Phenyl-2-S-acetylmercaptopropanoyl)-S-alanyl]-S-prolin-pivaloyloxymethylester] | 50% | 30% | 80% and 100% | 40% | 60% | 40% | 40% and 80% |  | 
C[C@H](NC(=O)[C@H](Cc1ccccc1)SC(=O)c1ccccc1)C(=O)N1CCC[C@H]1C(=O)O [Verbindung 2, N-[N-(3-Phenyl-2-S-benzoylmercaptopropanoyl)-S-alanyl]-S-prolin] |  | 60% |  |  | 30% | 50% | 50% and 30% |  | 
C[C@H](NC(=O)[C@H](Cc1ccccc1)SCOC(=O)C(C)(C)C)C(=O)N1CCC[C@H]1C(=O)OCOC(=O)C(C)(C)C [Verbindung 1, N-[N-(3-Phenyl-2-S-pivaloyloxymethylmercapto-propanoyl)-S-alanyl]-S-prolin-pivaloyloxymethylester] | 100% | 80% |  |  |  | 80% and 40% | 40% and 30% | 40% | 40%
